The results in this text go back to publication doi:10.1101/2025.11.04.686469, “Discovery of Host-Directed Small Molecules with Broad Anti-Leishmanial Efficacy” (bioRxiv, 2025).

Experiment [1] concerns extracellular L. mexicana promastigotes. The experiment in a line: Effect of compounds on promastigote viability (resazurin assay). It is filed as cell-based, Leishmania mexicana. How it is done: (§1) The effect of compounds on extracellular promastigotes was evaluated using a resazurin-based assay as described previously. In short, late log phase Leishmania promastigotes were seeded in a 96 well plate at 1 x 10^5 parasites per well and treated with drugs (0.5 – 200 μM) for 72 hours at 25°C. Ten microliters of resazurin (0.02% w/v) were added to the treated parasites to achieve a final concentration of 0.002% w/v and incubated for 24 hours. Viability of the promastigotes was assessed by fluorescence (excitation 544 nm, emission 590 nm, SpectraMax M2, Molecular Devices).

Experiment [2] relates to extracellular L. donovani promastigotes. Described as above. Format: cell-based, Leishmania donovani. To be noted: for MIC50: Leishmania donovani, 72-hour incubation. How it is done:
as §1

Experiment [3] relates to intracellular L. donovani amastigotes. The experiment in a line: Image-based (Giemsa staining) evaluation of intracellular anti-leishmanial activity in bone marrow derived macrophages. Format: cell-based, Leishmania donovani. The conditions noted are these: Leishmania donovani, Macrophage. As for the experimental part:
Bone marrow derived macrophages (BMDMs) were isolated from BALB/c mice and cultured as previously described. […] Completely differentiated BMDMs are obtained after 7 days of culture with media change every 2 days. Harvested cells were seeded onto 10 mm glass cover slips at 5 x 10^5 cells/ well of a 24 well plate in DMEM media (without LCM) and allowed to adhere overnight. […] After infection, cells were washed three times with fresh media to remove extracellular promastigotes and treated with compounds for a 72-hour incubation. BMDM cells were then washed with phosphate buffered saline, fixed with ice-cold methanol, and stained with Giemsa (5% v/v in water). The cover slips with stained cells are mounted onto glass slides and imaged on EVOS XL (100X, Thermo Fisher Scientific). Leishmania amastigotes per 100 macrophages were determined in a blinded manner.

For experiment [4] the test system is unchanged. The experiment in a line: Luminescent-based evaluation of intracellular anti-leishmanial activity in THP-1 macrophages. It is filed as cell-based, Leishmania donovani. The conditions noted are these: Leishmania donovani, THP-1; THP1 macrophages, luminescence assay, 72 hours of treatment; read-out: Intracellular L. donovani amastigotes Lum IC50. Put shortly: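 PMA-differentiated THP-1 macrophages (150 nM, 72 h) were infected 18 h with firefly luciferase-expressing L. donovani LV82 promastigotes, then washed. Infected cells were treated with compounds at 0.1-10 μM for 72 h. Surviving intracellular amastigotes were quantified by firefly luciferase luminescence after cell lysis and 10 min substrate incubation at room temperature.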

In a further experiment the target is T1, lysozyme (Homo sapiens, UniProt P61626).
T1 construct: endogenous in cells; host or cells: THP-1 cells differentiated with PMA and infected with L. mexicana promastigotes; cell lysate
T1 sequence (P61626 19-148): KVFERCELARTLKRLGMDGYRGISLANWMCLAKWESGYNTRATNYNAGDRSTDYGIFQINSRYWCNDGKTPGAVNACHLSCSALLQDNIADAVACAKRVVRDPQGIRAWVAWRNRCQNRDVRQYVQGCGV
Put plainly: Affinity capture with 197-bead in Leishmania infected macrophage lysate. To be noted: 197-bead vs control bead. It is filed as binding. How it is done:
To generate cell lysate, ten million THP-1 cells were plated overnight in a 10cm dish, then differentiated with 150 nM phorbol 12-myristate 13-acetate (PMA) for 72 hours. The resulting macrophages were infected with L. mexicana promastigotes at a multiplicity of infection of 1:10 and incubated for 18 hours. After infection, cells were washed three times with PBS to remove extracellular promastigotes. Cells were then collected by scraping and pelleted with centrifugation. The cell pellet was resuspended in cell buffer (50mM Tris-HCl, 150mM NaCl, 2mM EDTA, 0.5% triton-x-100) and subjected to five freeze-thaw cycles. Samples were centrifuged 14,000g x 10 minutes to remove cellular debris. Protein concentration of supernatant was determined by BCA assay and cell lysate was stored at −80°C until further use.
Functionalized agarose beads were made as follows. NHS activated agarose beads were washed three times to remove acetone and resuspended in PBS to create a slurry. 494 (197 with ligation chemical handle) was prepared in 0.3 mL at 25mM in DMSO and 1.7 mL PBS was added to 1 mL of agarose slurry for a final volume of 3 mL at a concentration of 2.5mM (10% v/v DMSO). […]
500 μg cell lysate was incubated with 200 μL slurry at a final volume of 1 mL for 1 hr. […] Peptides were extracted, acidified, desalted using C18 spin columns, and analyzed by LC-MS/MS using Thermo Easy nLC 1200-QExactive HF. […]

Usually MIC50 stands for an inhibitory concentration at the 50% level, which refers to growth in some studies and to a panel of isolates in others. The pIC50 is the negative decadic logarithm of the IC50, by convention in mol/L.

pIC50: −log10 of the molar value. Converted amounts (≈) assume the structure as drawn. Read-outs that look alike come from different tables or passages of the source. Some results are limits rather than exact numbers.

As to `O=C(CNCc1cccc(F)c1)Nc1ccc(-n2cc(C(F)(F)F)nc2-c2ccc(-c3ccc(C(F)(F)F)cc3)cc2)cc1` [Compound 197], the “effect on L. mexicana extracellular promastigote viability” value in experiment [1] is recorded as “no effect”. The MIC50 in experiment [1] (Leishmania mexicana, 72-hour incubation) was more than 200 µM; in experiment [2] (resazurin assay (Table 3), read-out: L. donovani Extracellular promastigotes MIC50) it was 6.4 µM (≈ 3.92 µg/mL); in experiment [2] (resazurin assay, read-out: Extracellular L. donovani promastigotes MIC50), 6.4 µM (≈ 3.92 µg/mL). The “direct effect on extracellular promastigote viability” value in experiment [2] (resazurin assay, strain not named for 53, L. donovani for 197) is “some direct reduction”. In addition, the pIC50 in experiment [3] (72 h, Giemsa staining, 72-hour incubation, read-out: Intracellular L. donovani amastigotes IC50) was 5.96; in experiment [3] (Giemsa staining (Table 3), read-out: L. donovani Intracellular amastigotes IC50) it was more than 5.70; in experiment [4], 5.62. Besides, at lysozyme, the “affinity capture abundance of lysozyme, Log2 fold change” value is on record as 6.57.
